Each compound was assayed against T1, Tyrosine-protein kinase receptor UFO (Homo sapiens, UniProt P30530) (assay: Inhibition of human recombinant AXL incubated for 1 to 1.5 hrs by FRET based Z'-Lyte kinase assay).
T1 sequence (P30530 whole entry): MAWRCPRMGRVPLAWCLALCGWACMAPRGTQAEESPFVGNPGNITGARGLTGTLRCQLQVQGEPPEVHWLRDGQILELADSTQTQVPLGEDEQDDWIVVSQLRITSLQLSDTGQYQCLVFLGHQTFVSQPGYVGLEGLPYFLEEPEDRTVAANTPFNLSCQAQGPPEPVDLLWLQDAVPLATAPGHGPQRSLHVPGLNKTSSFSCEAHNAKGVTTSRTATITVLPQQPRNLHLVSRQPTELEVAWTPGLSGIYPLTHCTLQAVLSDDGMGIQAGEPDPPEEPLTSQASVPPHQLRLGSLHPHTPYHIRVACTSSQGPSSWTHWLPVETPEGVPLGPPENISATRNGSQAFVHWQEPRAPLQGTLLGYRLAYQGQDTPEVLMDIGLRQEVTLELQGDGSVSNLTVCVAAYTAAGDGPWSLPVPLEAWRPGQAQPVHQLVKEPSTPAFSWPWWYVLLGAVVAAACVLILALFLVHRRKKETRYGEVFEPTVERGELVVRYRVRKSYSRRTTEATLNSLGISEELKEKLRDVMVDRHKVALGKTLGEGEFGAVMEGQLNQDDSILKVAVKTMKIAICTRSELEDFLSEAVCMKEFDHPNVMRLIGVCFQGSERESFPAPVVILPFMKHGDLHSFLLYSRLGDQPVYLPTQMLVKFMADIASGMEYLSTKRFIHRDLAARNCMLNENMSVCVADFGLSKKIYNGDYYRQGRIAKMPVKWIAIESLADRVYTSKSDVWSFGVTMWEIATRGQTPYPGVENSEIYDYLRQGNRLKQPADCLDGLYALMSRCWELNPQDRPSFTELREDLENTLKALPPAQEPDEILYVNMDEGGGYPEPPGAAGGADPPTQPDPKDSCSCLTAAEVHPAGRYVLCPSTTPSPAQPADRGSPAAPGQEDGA

IC50, > 10 µM:
Cc1c(C(=O)Nc2ccc(Oc3ncnc4[nH]cc(-c5ccccc5)c34)c(F)c2)c(=O)c2cc(F)ccc2n1C, Cc1c(C(=O)Nc2ccc(Oc3ncnc4[nH]cc(-c5ccccc5)c34)c(F)c2)c(=O)c2cc3ccccc3cc2n1C, Cc1c(C(=O)Nc2ccc(Oc3ncnc4[nH]cc(-c5ccccc5)c34)c(F)c2)c(=O)c2cc(-c3ccccc3)ccc2n1C
